This note sets out measurements from patent US20100204138A1, “USE OF TRP6-T[…] D-LEU6-[…] […] AGENTS” (priority 2007, published 2010).

One assay relates to A549 cells. The assay is described as follows: Apoptosis prevention assay (C2 ceramide, Annexin-5). Particulars: 10 micrograms per ml, 30 min pretreatment. In kind it is cell-based, human.
In a further assay the test system is Streptococcus pneumoniae. The assay is described as follows: Streptococcus pneumoniae growth assay. Particulars: 10 micrograms per ml; 5×10^5 CFU/mL. In kind it is cell-based.
The test system of another assay is HCMV strain AD169. The assay is described as follows: HCMV plaque formation assay in MRC-5 cells. It is filed as cell-based. Particulars: 10 micrograms per ml, 7-10 days.
The subject of assay [1] is hepatitis B virus (HBV) ayw strain. The assay is described as follows: HBV experimental assay in HepG2-2.2.15 cells (TaqMan PCR of secreted HBV DNA). It is filed as cell-based. Particulars: 10 micrograms per ml, six days.
Assay [2] deals with Ovalbumin-restimulated spleen cells of Balb/c mice. The assay is described as follows: Th1/Th2 cytokine profiling assay. In kind it is cell-based, mouse. Particulars: 10 micrograms per ml; murine spleen cells; Ovalbumin restimulation, 72 hours.
In assay [3] the test system is Primary Human endothelial cells (HUVEC). The assay is described as follows: Endothelial cell migration assay. In kind it is cell-based. Conditions: 10 micrograms per ml, 22 hours. On the procedure:
Thereafter, designated concentration of testing peptides—10 micrograms per ml—was added in duplicate wells.

The subject of another assay is HUVEC. The assay is described as follows: Endothelial tube formation assay. In kind it is cell-based, human. Particulars: 10 micrograms per ml, 20 hours. The source says:
Positive control was vehicle only.

For “Pyr-His-Trp-Ser-Tyr-D-His(Bzl)-D-Leu-Arg-Pro-NHEt [Peptide 2]”, the “reduction of the ceramide-induced apoptosis on human lung cells” value in the assay with A549 cells is reported as “did not reduce”. Also, in the assay with Streptococcus pneumoniae, the “inhibition of the growth of Streptococcus pneumoniae” value was 100%. The “inhibition of HCMV plaque formation as compared to the virus control” value in the assay with HCMV strain AD169 is “did not inhibit”. In addition, the “inhibition of HBV replication as compared to the virus control infection” value in assay [1] is listed as 61.6%. In assay [2], the “change of the production of IL-5” value is “did not significantly change”; the “production of IFN-γ, suppressed by” value worked out at 30.8%; the “production of IL-2, induced by” value stood at 55.8%; the “production of IL-4, induced/increased by” value worked out at 135.7%. Moreover, the “production of TNF-alpha, induced by” value in assay [2] is “did not significantly change”. Moreover, in assay [3], the “inhibition of the migration of human endothelial cells” value came to 8%. In addition, the “inhibition of the tube formation of human endothelial cells” value in the assay on HUVEC is given as 4%.

“Pyr-His-Trp-Ser-Tyr-Trp-Leu-Arg-Pro-Gly-NH2 (HWSYWLRPG; N-terminal pyroglutamate; C-terminal amide; printed: His-Trp-Ser-Tyr-Trp-Leu-Arg-Pro-Gly-) [Peptide 1, LHRH family peptide, commercially available]”: in the assay with A549 cells, the “reduction of the ceramide-induced apoptosis on human lung cells” value was 22.65%. For the same substance, in the assay on Streptococcus pneumoniae, the “inhibition of the growth of Streptococcus pneumoniae” value came to 100%. Also, the “inhibition of HCMV plaque formation as compared to the virus control” value with HCMV strain AD169 is “did not inhibit”. Further, the “inhibition of HBV replication as compared to the virus control infection” value in assay [1] is 23%. Further, in assay [2], the “change of the production of IL-5” value is on record as “did not significantly change”; the “production of IFN-γ, induced by” value was found to be 40.2%; the “production of IL-2, induced by” value turned out to be 47.1%; the “production of IL-4, induced/increased by” value was 70.6%. In addition, in assay [2], the “production of TNF-alpha, induced by” value is listed as 45.1%. Also, the “inhibition of the migration of human endothelial cells” value in assay [3] worked out at 3%. Also, the “inhibition of the tube formation of human endothelial cells” value in the assay on HUVEC was 15%.
